Measured values taken from PubChem BioAssay (NCI).
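Five concentrations, 48 hours, 96-well plates. TGI: total growth inhibition.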

Tests used:
Experiment in all cases: growth of human tumour cells (NCI), 48 h
786-0 renal = system: 786-0 renal
A498 renal = system: A498 renal
A549 NSCLC = system: A549 NSCLC
ACHN renal = system: ACHN renal
BT-549 breast = system: BT-549 breast
CAKI-1 renal = system: CAKI-1 renal
CCRF-CEM leukemia = system: CCRF-CEM leukemia
COLO 205 colon = system: COLO 205 colon
DU-145 prostate = system: DU-145 prostate
EKVX NSCLC = system: EKVX NSCLC
HCC-2998 colon = system: HCC-2998 colon
HCT-116 colon = system: HCT-116 colon
HCT-15 colon = system: HCT-15 colon
HL-60(TB) leukemia = system: HL-60(TB) leukemia
HOP-62 NSCLC = system: HOP-62 NSCLC
HOP-92 NSCLC = system: HOP-92 NSCLC
HS 578T breast = system: HS 578T breast
HT29 colon = system: HT29 colon
IGROV1 ovarian = system: IGROV1 ovarian
K-562 leukemia = system: K-562 leukemia
KM12 colon = system: KM12 colon
LOX IMVI melanoma = system: LOX IMVI melanoma
M14 melanoma = system: M14 melanoma
MALME-3M melanoma = system: MALME-3M melanoma
MCF7 breast = system: MCF7 breast
MDA-MB-231 breast = system: MDA-MB-231 breast
MDA-MB-435 = system: MDA-MB-435
MDA-N = system: MDA-N
MOLT-4 leukemia = system: MOLT-4 leukemia
NCI-H226 lung = system: NCI-H226 lung
NCI-H23 lung = system: NCI-H23 lung
NCI-H460 lung = system: NCI-H460 lung
NCI-H522 lung = system: NCI-H522 lung
NCI/ADR-RES ovarian = system: NCI/ADR-RES ovarian
OVCAR-3 ovarian = system: OVCAR-3 ovarian
OVCAR-4 ovarian = system: OVCAR-4 ovarian
OVCAR-5 ovarian = system: OVCAR-5 ovarian
OVCAR-8 ovarian = system: OVCAR-8 ovarian
PC-3 prostate = system: PC-3 prostate
RPMI-8226 leukemia = system: RPMI-8226 leukemia
RXF 393 renal = system: RXF 393 renal
SF-268 CNS = system: SF-268 CNS
SF-295 CNS = system: SF-295 CNS
SF-539 CNS = system: SF-539 CNS
SK-MEL-2 melanoma = system: SK-MEL-2 melanoma
SK-MEL-28 melanoma = system: SK-MEL-28 melanoma
SK-MEL-5 melanoma = system: SK-MEL-5 melanoma
SK-OV-3 ovarian = system: SK-OV-3 ovarian
SN12C renal = system: SN12C renal
SNB-19 CNS = system: SNB-19 CNS
SNB-75 CNS = system: SNB-75 CNS
SR leukemia = system: SR leukemia
SW-620 colon = system: SW-620 colon
T-47D breast = system: T-47D breast
TK-10 renal = system: TK-10 renal
U251 CNS = system: U251 CNS
UACC-257 melanoma = system: UACC-257 melanoma
UACC-62 melanoma = system: UACC-62 melanoma
UO-31 renal = system: UO-31 renal

For `C1CSCCCSCCCSCCCSCCCSC1`, the TGI (786-0 renal) was > 100 µM, the TGI (A498 renal) was > 78.1 µM and the TGI (A549 NSCLC) was > 100 µM. For the same compound, the TGI (ACHN renal) was > 100 µM, the TGI (BT-549 breast) was > 88.5 µM and the TGI (CAKI-1 renal) was 48.8 µM. For the same compound, the TGI (CCRF-CEM leukemia) was 32.4 µM, the TGI (COLO 205 colon) was 34.5 µM and the TGI (DU-145 prostate) was > 100 µM. The TGI (EKVX NSCLC) was > 100 µM, the TGI (HCC-2998 colon) was > 100 µM and the TGI (HCT-116 colon) was > 100 µM. The TGI (HCT-15 colon) was > 100 µM, the TGI (HL-60(TB) leukemia) was 36.5 µM and the TGI (HOP-62 NSCLC) was > 100 µM. The TGI (HOP-92 NSCLC) was > 93.4 µM, the TGI (HS 578T breast) was > 100 µM and the TGI (HT29 colon) was > 63.2 µM. For the same compound, the TGI (IGROV1 ovarian) was > 87.1 µM, the TGI (K-562 leukemia) was > 80 µM and the TGI (KM12 colon) was > 100 µM. The TGI (LOX IMVI melanoma) was 61.3 µM, the TGI (M14 melanoma) was > 100 µM and the TGI (MALME-3M melanoma) was > 100 µM. The TGI (MCF7 breast) was > 76.7 µM, the TGI (MDA-MB-231 breast) was > 88.4 µM and the TGI (MDA-MB-435) was > 100 µM. For the same compound, the TGI (MDA-N) was > 100 µM, the TGI (MOLT-4 leukemia) was 38.1 µM and the TGI (NCI-H226 lung) was > 77.2 µM. For the same compound, the TGI (NCI-H23 lung) was > 100 µM, the TGI (NCI-H460 lung) was > 51.4 µM and the TGI (NCI-H522 lung) was 81.2 µM. For the same compound, the TGI (NCI/ADR-RES ovarian) was > 100 µM, the TGI (OVCAR-3 ovarian) was > 100 µM and the TGI (OVCAR-4 ovarian) was > 100 µM. For the same compound, the TGI (OVCAR-5 ovarian) was > 100 µM, the TGI (OVCAR-8 ovarian) was > 100 µM and the TGI (PC-3 prostate) was > 90.2 µM. The TGI (RPMI-8226 leukemia) was 36.9 µM, the TGI (RXF 393 renal) was > 100 µM and the TGI (SF-268 CNS) was > 100 µM. The TGI (SF-295 CNS) was > 100 µM, the TGI (SF-539 CNS) was > 100 µM and the TGI (SK-MEL-2 melanoma) was > 95.4 µM. The TGI (SK-MEL-28 melanoma) was > 100 µM, the TGI (SK-MEL-5 melanoma) was 28.3 µM and the TGI (SK-OV-3 ovarian) was > 100 µM. For the same compound, the TGI (SN12C renal) was > 100 µM, the TGI (SNB-19 CNS) was > 100 µM and the TGI (SNB-75 CNS) was > 93.2 µM. The TGI (SR leukemia) was 29.5 µM, the TGI (SW-620 colon) was > 100 µM and the TGI (T-47D breast) was > 88.6 µM. For the same compound, the TGI (TK-10 renal) was > 100 µM, the TGI (U251 CNS) was > 100 µM and the TGI (UACC-257 melanoma) was 97.2 µM. The TGI (UACC-62 melanoma) was > 100 µM and the TGI (UO-31 renal) was > 100 µM.
